Test system: SKOV-3 cells
Assay: Boyden chamber migration assay
Assay type: cell-based
Conditions: SKOV-3, 8 μm pores, 24 h
Experimental: FIG. 14 is data related to a Boyden chamber assay. […] Cells were washed, fixed, stained with hematoxylin and 4 random fields were counted at 20× magnification. FIG. 14B is a set of images after cells were later incubated with Hoechst dye for 10 min. and images were obtained at 10× magnification.
In order to confirm the role of CPP-ELPs in preventing migration of SKOV-3 cells, a boyden chamber assay was performed (35). This assay involves a membrane with pore size of 8 μm. SKOV-3 cells are plated on one side of the membrane, and a chemoattractant (FBS) is placed on the opposite side of the membrane. The cells are allowed to migrate trough the pores toward the chemoattractant for […], and the cells which penetrated the membrane are quantified by cell counting and independently by Hoechst staining and fluorescence microscopy. […] Serum starvation of cells overnight ruled out the fact that proliferation was a contributing factor in this assay.

In the case of “Tat (YGRKKRRQRRR; Tat CPP) [Tat peptide]”, the “migration across the membrane toward FBS” value is reported as “migrated across the membrane”.

Source: patent US9682118B1, “Inhibition of metastasis by cell penetrating peptides” (University of Mississippi Medical Center, priority 2006, dated 2017)
